Test results from PMC12948245, “Fluorinated Carnitine Derivatives as Tools to Visualise Carnitine Transport and Metabolism” (Advanced Science, 2025).

What was measured:
OCTN2 [1] = target: T1, OCTN2 (Homo sapiens, UniProt O76082); assay: inhibition of […]FMC uptake in H460 cells by co-incubation; format: cell-based; conditions: HBSS, 37 °C, 60 min; inhibitor concentration of this test not given
T1 construct: gene SLC22A5; endogenous full-length transporter in intact H460 cells; identity supported by OCTN2 siRNA knockdown (siRNA L-007456-00-0005)
T1 sequence (O76082 1-557): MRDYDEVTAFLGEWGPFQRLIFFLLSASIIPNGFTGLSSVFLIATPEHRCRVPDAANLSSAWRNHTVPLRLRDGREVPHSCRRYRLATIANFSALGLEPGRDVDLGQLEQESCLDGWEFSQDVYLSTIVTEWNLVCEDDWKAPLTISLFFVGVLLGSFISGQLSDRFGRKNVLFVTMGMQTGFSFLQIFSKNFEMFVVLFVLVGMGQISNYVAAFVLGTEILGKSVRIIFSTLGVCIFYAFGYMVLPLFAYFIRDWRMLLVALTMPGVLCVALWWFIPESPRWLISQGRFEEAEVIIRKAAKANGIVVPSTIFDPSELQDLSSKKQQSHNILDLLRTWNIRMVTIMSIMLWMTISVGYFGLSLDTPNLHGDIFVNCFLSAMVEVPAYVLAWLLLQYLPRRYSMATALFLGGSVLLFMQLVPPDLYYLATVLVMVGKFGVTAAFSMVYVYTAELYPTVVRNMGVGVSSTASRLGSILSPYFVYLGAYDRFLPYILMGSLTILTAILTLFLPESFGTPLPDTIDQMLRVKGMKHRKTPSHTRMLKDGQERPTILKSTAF

OCTN2 [2] = target: T1, OCTN2; assay: competitive inhibition of […]FMC uptake in H460 cells, gamma counting; format: cell-based; conditions: HBSS, 37 °C, 60 min; [18F]FMC as tracer; endogenous transporter; n = 3

% reduction of [18F]FMC uptake (OCTN2 [1]) [%]	IC50 (OCTN2 [2]) [µM]	SMILES
78.1 ± 10.2		C[N+](C)(C)NCCC(=O)[O-] [meldonium]
	4.8 ± 1.6	C[N+](C)(C)C[C@H](O)CC(=O)O [ʟ-carnitine]
